Results from US20130225694A1, “COMPOSITIONS AND METHODS OF INHIBITING RETINAL DEGENERATION” (Oklahoma Medical Research Foundation, priority 2012, published 2013).
Read-outs that look alike come from different tables or passages of the source.

Experiments:
Format in all cases: biochemical
chicken RPE65 = target: T1, chicken RPE65 (Gallus gallus, UniProt Q9YGX2); experiment: Liposome-based isomerohydrolase assay with recombinant chicken RPE65
T1 construct: made in house; host or cells: 293A cells infected with chicken RPE65 adenovirus; total lysate used
T1 sequence (Q9YGX2 1-533): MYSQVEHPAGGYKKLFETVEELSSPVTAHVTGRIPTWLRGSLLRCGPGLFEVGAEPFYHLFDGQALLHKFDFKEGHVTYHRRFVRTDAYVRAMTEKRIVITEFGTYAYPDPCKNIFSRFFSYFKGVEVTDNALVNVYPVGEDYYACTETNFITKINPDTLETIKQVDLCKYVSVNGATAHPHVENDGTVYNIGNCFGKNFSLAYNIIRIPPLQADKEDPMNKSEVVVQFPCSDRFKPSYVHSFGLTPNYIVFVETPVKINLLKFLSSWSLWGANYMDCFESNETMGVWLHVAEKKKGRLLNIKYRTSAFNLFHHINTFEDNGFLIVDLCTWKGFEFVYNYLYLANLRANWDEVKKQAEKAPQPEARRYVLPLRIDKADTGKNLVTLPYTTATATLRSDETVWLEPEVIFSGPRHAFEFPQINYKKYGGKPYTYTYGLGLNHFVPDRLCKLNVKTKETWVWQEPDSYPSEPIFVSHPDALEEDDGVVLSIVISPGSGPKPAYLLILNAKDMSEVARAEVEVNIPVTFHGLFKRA

RPE65 isomerohydrolase = target: T2, RPE65 isomerohydrolase (Bos taurus, UniProt Q28175); experiment: In vitro RPE65 isomerohydrolase assay with bovine RPE microsomes (Example 3)
T2 construct: Bovine RPE microsomes were used as a source of the RPE65 protein; from tissue; host or cells: bovine RPE microsomes
T2 sequence (Q28175 whole entry): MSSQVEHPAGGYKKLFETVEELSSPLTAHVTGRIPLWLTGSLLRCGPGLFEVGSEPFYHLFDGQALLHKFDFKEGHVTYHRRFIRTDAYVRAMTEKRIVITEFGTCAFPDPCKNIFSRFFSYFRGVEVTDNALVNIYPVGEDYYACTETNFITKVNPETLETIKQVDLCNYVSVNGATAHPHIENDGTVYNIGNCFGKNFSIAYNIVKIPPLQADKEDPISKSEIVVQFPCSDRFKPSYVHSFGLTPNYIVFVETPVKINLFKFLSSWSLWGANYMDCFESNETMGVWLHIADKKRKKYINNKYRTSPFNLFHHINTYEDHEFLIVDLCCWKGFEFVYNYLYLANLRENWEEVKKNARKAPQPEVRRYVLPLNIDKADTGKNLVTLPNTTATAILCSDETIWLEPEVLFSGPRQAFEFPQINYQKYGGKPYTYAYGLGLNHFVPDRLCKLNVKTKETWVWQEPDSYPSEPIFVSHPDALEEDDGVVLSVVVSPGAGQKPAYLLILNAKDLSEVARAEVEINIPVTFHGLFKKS
Text: In this Example, the effect of several PBN analogs on RPE65 isomerohydrolase activity was investigated in an in vitro assay. The chemical structures of the PBN analogs utilized are described herein above. Bovine RPE microsomes were used as a source of the RPE65 protein and all-trans-[^3H] retinol was a substrate for the isomerohydrolase assay. The produced 11-cis-[^3H] retinol was quantified by normal phase HPLC with flow scintillation analyzer. The inhibition of isomerohydrolase activity was dependent on the PBN analog's concentration.
FIG. 9 also illustrates the calculation of IC50 values for the two difluoro-PBN analogs. IC50 values are the concentration of the inhibitor that inhibits 50% of the enzymatic activity. Therefore, the smaller the IC50 value, the better the drug.

[1] = tested on: retinal retinol dehydrogenases (RDHs); experiment: Assay for retinal RDH activity in mouse retinal microsomes; details: 2 mM PBN, NADPH-dependent reduction of all-trans-retinal
Experimental: Assay for retinal RDH activity—The effect of PBN on retinal dehydrogenase (RDH) enzymes was determined in vitro using mouse retinal microsomes. […] Homogenates were centrifuged at 10,000 g for 10 minutes at 4° C. The resulting supernatants were then centrifuged at 100,000 g for 1 hour at 4° C., and microsomal pellets were resuspended in storage buffer [50 mM Tris-Cl (pH 7.2), 1 mM EDTA, 20% glycerol, 1 mM dithiothreitol, and the protease inhibitors described above]. Protein concentrations were measured, and microsomal fractions were stored at −80° C. after snap freezing in liquid nitrogen.
Reactions were carried out in 1 ml reaction buffer [100 mM Tris-HCl (pH 7.2), 200 mM NaCl, 1 mM dithiothreitol, 2 mg/ml bovine serum albumin, and 1% (v/v) glycerol] with 5 μg of microsomes, 0 or 75 μM of NADPH, 0 or 2 mM PBN, and increasing concentrations of the substrate all-trans-retinal. […] Retinoids were extracted with 2 volumes of hexane and analyzed by HPLC. […] The peaks of all-trans-retinal (substrate) and all-trans-retinol (product of the reaction) were identified and quantified by comparison with pure retinoid isomeric standards. […] For each condition the non-enzymatic conversion of all-trans-retinal to all-trans-retinol measured in absence of NADPH was subtracted from the conversion obtained with NADPH to determine the NADPH-dependant activity of retinal RDHs. […]

CC(C)(C)/[N+]([O-])=C/c1ccccc1 [Compound 1, α-phenyl-N-tert-butyl nitrone]
type of inhibition (chicken RPE65; Lineweaver-Burk, with and without 0.1 mM PBN): uncompetitive inhibition | Ki (chicken RPE65; all-trans-retinyl palmitate liposomes, 0.1 mM PBN, read-out: Ki (inhibition constant, uncompetitive formula)): 53 ± 7 µM | IC50 (RPE65 isomerohydrolase; apparent IC50, bovine RPE microsomes, all-trans-[3H] retinol substrate (Table 1), read-out: IC50 Values for the Inhibition of RPE65 Isomerohydrolase Reaction): 100 µM | IC50 (RPE65 isomerohydrolase; in vitro RPE65 isomerohydrolase IC50 values repeated in Table 7, read-out: IC50): 100 µM | inhibition of retinal RDH activity [1]: did not inhibit
